Test results: ChEMBL document CHEMBL3351479, “Novel acylureidoindolin-2-one derivatives as dual Aurora B/FLT3 inhibitors for the treatment of acute myeloid leukemia” (Eur J Med Chem, 2014)

Legend:
THP-1 [1] = experiment: Cytotoxicity against human THP1 cells assessed as cell viability at 1 uM after 48 hrs by MTT assay; assay type: functional; conditions: THP-1, 48 h, read-out: Activity
[2] = molecular target: T1, Receptor-type tyrosine-protein kinase FLT3 (Homo sapiens, UniProt P36888); experiment: Inhibition of FLT3 (unknown origin) using EAIYAAPFAKKK substrate
T1 sequence (P36888 whole entry): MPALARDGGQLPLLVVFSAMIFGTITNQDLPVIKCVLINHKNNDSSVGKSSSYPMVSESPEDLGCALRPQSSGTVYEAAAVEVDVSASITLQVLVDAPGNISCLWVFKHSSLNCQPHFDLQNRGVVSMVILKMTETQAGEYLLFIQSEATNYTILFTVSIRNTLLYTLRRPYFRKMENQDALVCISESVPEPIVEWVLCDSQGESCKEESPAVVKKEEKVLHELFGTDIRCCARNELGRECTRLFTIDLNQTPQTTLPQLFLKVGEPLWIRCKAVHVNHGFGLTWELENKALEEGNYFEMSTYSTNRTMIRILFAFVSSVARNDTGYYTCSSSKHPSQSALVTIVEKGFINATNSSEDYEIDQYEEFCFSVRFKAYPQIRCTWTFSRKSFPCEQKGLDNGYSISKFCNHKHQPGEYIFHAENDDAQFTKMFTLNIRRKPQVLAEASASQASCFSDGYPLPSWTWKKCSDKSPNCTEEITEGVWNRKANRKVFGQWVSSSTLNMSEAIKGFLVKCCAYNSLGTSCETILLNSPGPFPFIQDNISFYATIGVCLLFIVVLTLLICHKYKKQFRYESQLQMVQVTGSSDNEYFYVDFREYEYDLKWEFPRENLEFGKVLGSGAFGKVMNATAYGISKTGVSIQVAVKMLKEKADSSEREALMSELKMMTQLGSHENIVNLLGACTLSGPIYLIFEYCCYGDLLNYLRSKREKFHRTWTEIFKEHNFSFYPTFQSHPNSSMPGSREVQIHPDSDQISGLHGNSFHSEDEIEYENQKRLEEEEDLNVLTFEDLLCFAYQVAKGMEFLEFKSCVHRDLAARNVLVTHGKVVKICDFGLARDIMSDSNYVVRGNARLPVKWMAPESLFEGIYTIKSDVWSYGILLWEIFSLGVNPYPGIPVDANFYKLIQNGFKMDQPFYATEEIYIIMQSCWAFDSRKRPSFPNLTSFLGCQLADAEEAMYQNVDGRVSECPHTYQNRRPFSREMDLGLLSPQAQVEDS

MV4-11 [3] = experiment: Cytotoxicity against human MV4-11 cells assessed as cell viability at 1 uM after 48 hrs by MTT assay; assay type: functional; conditions: MV4-11, 48 h, read-out: Activity
Aurora kinase B [4] = molecular target: T2, Aurora kinase B (Homo sapiens, UniProt Q96GD4); experiment: Inhibition of Aurora B (unknown origin) using HLRRASLG substrate
[5] = Cytotoxicity against human HL60 cells assessed as cell viability after 48 hrs by MTT assay; assay type: functional, cell-based; conditions: HL-60, 48 h
[6] = Cytotoxicity against human HL60 cells assessed as cell viability at 1 uM after 48 hrs by MTT assay; assay type: functional; conditions: HL-60, 48 h, read-out: Activity
THP-1 [7] = experiment: Cytotoxicity against human THP1 cells assessed as cell viability after 48 hrs by MTT assay; assay type: functional, cell-based
MOLM-13 [8] = experiment: Cytotoxicity against human MOLM13 cells assessed as cell viability after 48 hrs by MTT assay; assay type: functional, cell-based; conditions: MOLM-13, 48 h
MV4-11 [9] = experiment: Cytotoxicity against human MV4-11 cells assessed as cell viability after 48 hrs by MTT assay; assay type: functional, cell-based
MOLM-13 [10] = experiment: Cytotoxicity against human MOLM13 cells assessed as cell viability at 1 uM after 48 hrs by MTT assay; assay type: functional; conditions: MOLM-13, 48 h, read-out: Activity
Aurora kinase B [11] = molecular target: T2, Aurora kinase B; experiment: Inhibition of Aurora B (unknown origin) using HLRRASLG substrate at 1 uM
[12] = Permeability coefficient of the compound at pH 7.4 by PAMPA-GIT assay; assay type: ADME; conditions: read-out: Peff
[13] = Ratio of solubility in PBS to solubility in DMSO; assay type: physicochemical
[14] = molecular target: Receptor-type tyrosine-protein kinase FLT3 (Homo sapiens) (UniProt P36888); experiment: Inhibition of FLT3 (unknown origin) using EAIYAAPFAKKK substrate at 1 uM
[15] = molecular target: Platelet-derived growth factor receptor beta (Homo sapiens) (UniProt P09619); experiment: Inhibition of PDGFRbeta (unknown origin) at 1 uM
[16] = molecular target: Aurora kinase C (Homo sapiens) (UniProt Q9UQB9); experiment: Inhibition of Aurora C (unknown origin) at 1 uM
[17] = molecular target: Aurora kinase A (Homo sapiens) (UniProt O14965); experiment: Inhibition of Aurora A (unknown origin) at 1 uM
[18] = molecular target: Platelet-derived growth factor receptor alpha (Homo sapiens) (UniProt P16234); experiment: Inhibition of PDGFRalpha (unknown origin) at 1 uM
Chain of Platelet-derived growth factor receptor alpha (Homo sapiens) (P16234 whole entry): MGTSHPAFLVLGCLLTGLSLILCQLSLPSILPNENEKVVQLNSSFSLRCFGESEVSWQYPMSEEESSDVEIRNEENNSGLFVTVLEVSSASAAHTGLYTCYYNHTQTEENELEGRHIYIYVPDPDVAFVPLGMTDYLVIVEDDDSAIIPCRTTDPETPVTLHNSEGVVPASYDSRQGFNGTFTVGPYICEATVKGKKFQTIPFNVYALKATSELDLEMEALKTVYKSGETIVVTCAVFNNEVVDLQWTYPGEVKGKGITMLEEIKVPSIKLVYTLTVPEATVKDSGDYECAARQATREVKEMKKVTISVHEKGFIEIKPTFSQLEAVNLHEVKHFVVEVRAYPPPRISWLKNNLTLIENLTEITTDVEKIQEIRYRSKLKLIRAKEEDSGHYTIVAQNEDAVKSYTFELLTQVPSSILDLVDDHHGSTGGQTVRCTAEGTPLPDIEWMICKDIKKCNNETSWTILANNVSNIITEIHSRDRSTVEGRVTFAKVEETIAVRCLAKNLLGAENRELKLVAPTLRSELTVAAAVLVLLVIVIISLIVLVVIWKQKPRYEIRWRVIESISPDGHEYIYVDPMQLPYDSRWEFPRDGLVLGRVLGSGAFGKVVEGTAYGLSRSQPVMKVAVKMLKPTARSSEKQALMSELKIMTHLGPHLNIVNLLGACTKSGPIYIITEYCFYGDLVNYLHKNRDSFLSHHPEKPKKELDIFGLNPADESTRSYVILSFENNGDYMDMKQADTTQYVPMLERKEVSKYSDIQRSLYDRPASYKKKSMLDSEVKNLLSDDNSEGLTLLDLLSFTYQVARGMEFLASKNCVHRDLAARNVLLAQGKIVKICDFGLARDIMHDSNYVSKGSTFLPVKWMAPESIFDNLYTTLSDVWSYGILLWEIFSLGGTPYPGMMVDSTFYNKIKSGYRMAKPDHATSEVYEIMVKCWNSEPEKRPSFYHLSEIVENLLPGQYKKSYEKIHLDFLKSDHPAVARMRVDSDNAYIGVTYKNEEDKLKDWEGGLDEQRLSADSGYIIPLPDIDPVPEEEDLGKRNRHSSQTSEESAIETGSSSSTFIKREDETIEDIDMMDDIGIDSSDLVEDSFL

T2 sequence (Q96GD4 whole entry): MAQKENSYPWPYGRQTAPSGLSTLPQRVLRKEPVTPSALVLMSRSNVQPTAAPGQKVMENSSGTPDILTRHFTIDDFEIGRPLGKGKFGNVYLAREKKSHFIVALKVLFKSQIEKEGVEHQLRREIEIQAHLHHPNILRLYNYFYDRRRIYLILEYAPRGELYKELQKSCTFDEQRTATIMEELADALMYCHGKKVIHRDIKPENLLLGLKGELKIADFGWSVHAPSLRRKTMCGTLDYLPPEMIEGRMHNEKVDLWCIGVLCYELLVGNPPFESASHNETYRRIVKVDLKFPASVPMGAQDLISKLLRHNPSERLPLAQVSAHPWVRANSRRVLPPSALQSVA
Chain of Platelet-derived growth factor receptor beta (Homo sapiens) (P09619 whole entry): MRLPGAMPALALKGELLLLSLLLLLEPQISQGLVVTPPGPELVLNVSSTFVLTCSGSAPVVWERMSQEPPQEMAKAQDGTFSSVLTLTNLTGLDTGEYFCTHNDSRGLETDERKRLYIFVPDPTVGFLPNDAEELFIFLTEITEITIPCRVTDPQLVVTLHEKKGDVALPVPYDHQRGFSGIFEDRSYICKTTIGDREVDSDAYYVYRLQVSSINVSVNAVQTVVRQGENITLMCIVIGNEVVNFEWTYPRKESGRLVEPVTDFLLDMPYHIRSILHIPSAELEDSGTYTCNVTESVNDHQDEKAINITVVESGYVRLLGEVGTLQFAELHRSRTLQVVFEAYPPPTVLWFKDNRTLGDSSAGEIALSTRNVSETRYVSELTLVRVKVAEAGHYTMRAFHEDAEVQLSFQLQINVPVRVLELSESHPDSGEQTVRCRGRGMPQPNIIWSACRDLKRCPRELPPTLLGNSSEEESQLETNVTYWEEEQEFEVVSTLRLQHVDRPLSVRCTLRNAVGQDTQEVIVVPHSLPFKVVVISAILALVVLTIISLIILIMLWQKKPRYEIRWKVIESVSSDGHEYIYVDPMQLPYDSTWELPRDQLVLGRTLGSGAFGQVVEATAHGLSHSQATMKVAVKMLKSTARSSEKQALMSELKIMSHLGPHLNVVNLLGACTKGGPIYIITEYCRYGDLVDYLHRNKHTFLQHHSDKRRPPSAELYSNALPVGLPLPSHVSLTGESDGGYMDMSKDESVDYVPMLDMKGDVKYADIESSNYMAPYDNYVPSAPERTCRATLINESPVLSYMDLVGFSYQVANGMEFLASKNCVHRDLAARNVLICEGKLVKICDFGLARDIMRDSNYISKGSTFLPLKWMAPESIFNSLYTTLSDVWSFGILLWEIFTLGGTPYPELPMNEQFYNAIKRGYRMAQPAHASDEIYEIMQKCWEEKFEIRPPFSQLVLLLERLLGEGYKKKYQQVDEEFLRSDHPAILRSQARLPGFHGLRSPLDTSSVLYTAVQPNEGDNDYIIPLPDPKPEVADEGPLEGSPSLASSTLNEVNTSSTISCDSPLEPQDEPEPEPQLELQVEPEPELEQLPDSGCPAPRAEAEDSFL
Chain of Aurora kinase A (Homo sapiens) (O14965 whole entry): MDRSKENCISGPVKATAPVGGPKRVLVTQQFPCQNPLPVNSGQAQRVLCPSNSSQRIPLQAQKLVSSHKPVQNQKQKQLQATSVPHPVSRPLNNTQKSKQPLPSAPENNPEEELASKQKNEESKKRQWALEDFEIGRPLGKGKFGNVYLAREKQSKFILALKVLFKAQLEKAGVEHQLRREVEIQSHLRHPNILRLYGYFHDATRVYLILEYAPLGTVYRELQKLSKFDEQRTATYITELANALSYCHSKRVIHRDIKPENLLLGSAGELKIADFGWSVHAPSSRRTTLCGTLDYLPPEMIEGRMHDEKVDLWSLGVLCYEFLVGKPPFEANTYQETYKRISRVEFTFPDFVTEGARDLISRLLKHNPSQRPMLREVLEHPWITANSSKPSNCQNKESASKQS
Chain of Aurora kinase C (Homo sapiens) (Q9UQB9 whole entry): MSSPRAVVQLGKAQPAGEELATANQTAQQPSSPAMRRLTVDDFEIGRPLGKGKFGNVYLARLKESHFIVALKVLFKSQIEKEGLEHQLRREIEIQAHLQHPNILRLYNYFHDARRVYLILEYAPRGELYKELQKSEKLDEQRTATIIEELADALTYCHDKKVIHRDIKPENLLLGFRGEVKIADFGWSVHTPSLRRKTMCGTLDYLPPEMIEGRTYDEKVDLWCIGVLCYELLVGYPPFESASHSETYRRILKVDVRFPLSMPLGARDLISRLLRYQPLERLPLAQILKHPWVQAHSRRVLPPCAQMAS

Row | SMILES | viability at 1 µM (THP-1 [1]) | IC50 [2] | viability at 1 µM (MV4-11 [3]) | IC50 (Aurora kinase B [4]) | IC50 [5] | viability at 1 µM [6] | IC50 (THP-1 [7]; Homo sapiens, THP-1, 48 h) | IC50 (MOLM-13 [8]) | IC50 (MV4-11 [9]; Homo sapiens, MV4-11, 48 h) | viability at 1 µM (MOLM-13 [10]) | inhibition (Aurora kinase B [11]) | Papp [12] | Ratio [13] | inhibition [14] | IC50 (THP-1 [7]; thp-1) | IC50 (MV4-11 [9]; mv4-11) | inhibition [15] | inhibition [16] | inhibition [17] | inhibition [18]
1 | COc1ccc(C(=O)NC(=O)Nc2ccc3c(c2)NC(=O)/C3=C\c2ccc(C(=O)O)[nH]2)cc1 | 65% | > 1000 nM | 62% | > 1000 nM | > 500 nM | 65% | > 500 nM | > 500 nM | > 500 nM | 55% |  |  |  |  |  |  |  |  |  | 
2 | COc1ccc(C(=O)NC(=O)Nc2ccc3c(c2)NC(=O)/C3=C/c2ccccn2)cc1 | 85% | > 1000 nM | 60% |  | > 500 nM | 80% | > 500 nM | > 500 nM | > 500 nM | 62% | 29% |  |  |  |  |  |  |  |  | 
3 | COc1ccc(C(=O)NC(=O)Nc2ccc3c(c2)NC(=O)/C3=C\c2[nH]c(C)c(C(=O)O)c2C)cc1 |  |  |  |  | 15.8 nM |  | 78.4 nM | 9 nM | 12 nM |  |  | 0.23 ×10⁻⁶ cm/s | 0.32 |  |  |  |  |  |  | 
4 | COc1ccc(C(=O)NC(=O)Nc2ccc3c(c2)NC(=O)/C3=C\c2[nH]c(C)c(C(=O)O)c2C)c(F)c1 |  |  |  |  | 6.4 nM |  | 79.5 nM | 5.2 nM | 5.3 nM |  |  | 2.49 ×10⁻⁶ cm/s | 0.58 |  |  |  |  |  |  | 
5 | COc1ccc(C(=O)NC(=O)Nc2ccc3c(c2)NC(=O)/C3=C\c2[nH]c(C)c(-c3ccccc3)c2C)cc1 | 73% |  | 51% | > 1000 nM | > 500 nM | 65% | > 500 nM | > 500 nM | > 500 nM | 51% |  |  |  |  |  |  |  |  |  | 
6 | COc1ccc(C(=O)NC(=O)Nc2cc3c(cc2F)/C(=C/c2[nH]c(C)c(C(=O)O)c2C)C(=O)N3)cc1 |  |  |  |  | 32.2 nM |  | 81.2 nM | 25.3 nM | 34.6 nM |  |  | 2.46 ×10⁻⁶ cm/s | 0.58 |  |  |  |  |  |  | 
7 | COc1ccc(C(=O)NC(=O)Nc2ccc3c(c2)NC(=O)/C3=C/c2cccs2)cc1 |  | > 1000 nM |  | 21.5 nM | 300 nM |  | 375 nM | > 500 nM | 292 nM |  |  |  |  |  |  |  |  |  |  | 
8 | COc1ccc(C(=O)NC(=O)Nc2ccc3c(c2)NC(=O)/C3=C/c2ccco2)cc1 | 74% |  | 70% |  | > 500 nM | 64% | > 500 nM | > 500 nM | > 500 nM | 62% | 44% |  |  | 15% |  |  |  |  |  | 
9 | CCOC(=O)c1c(C)[nH]c(/C=C2\C(=O)Nc3cc(NC(=O)NC(=O)c4ccc(OC)cc4F)ccc32)c1C |  | > 1000 nM |  | > 1000 nM | 13 nM |  | 74 nM | 9.8 nM | 11.3 nM |  |  |  |  |  |  |  |  |  |  | 
10 | COc1ccc(C(=O)NC(=O)Nc2ccc3c(c2)NC(=O)/C3=C/c2ccc(Cl)cc2)cc1 | 83% |  | 97% |  | > 500 nM | 77% | > 500 nM | > 500 nM | > 500 nM | 101% | 13% |  |  | 6% |  |  |  |  |  | 
11 | COc1ccc(C(=O)NC(=O)Nc2ccc3c(c2)NC(=O)/C3=C\c2[nH]c(C)c(C(=O)NCCN3CCCC3)c2C)c(F)c1.CS(=O)(=O)O |  |  |  |  |  |  |  |  |  |  |  |  | 0.97 |  | 32.2 nM | 2 nM |  |  |  | 
12 | COc1ccc(C(=O)NC(=O)Nc2ccc3c(c2)NC(=O)/C3=C\c2[nH]c(C)c(CCC(=O)O)c2C)cc1 |  |  |  |  | 6.4 nM |  | 52.8 nM | 5.2 nM | 5.3 nM |  |  |  | 0.57 |  |  |  |  |  |  | 
13 | COc1ccc(C(=O)NC(=O)Nc2ccc3c(c2)NC(=O)/C3=C\c2ccc[nH]2)cc1 |  |  |  |  | 29.5 nM |  | 68.4 nM | 18.1 nM | 29.3 nM |  | 94% | 0.67 ×10⁻⁶ cm/s | 0.37 |  |  |  | 35% | 17% | 11% | 30%
14 | COc1ccc(C(=O)NC(=O)Nc2ccc3c(c2)NC(=O)/C3=C/c2ccc(Cl)c(Cl)c2)cc1 | 68% |  | 71% |  | > 500 nM | 63% | > 500 nM | > 500 nM | > 500 nM | 69% | 9% |  |  | 19% |  |  |  |  |  | 
15 | COc1ccc(C(=O)NC(=O)Nc2ccc3c(c2)NC(=O)/C3=C/c2ccccc2)cc1 | 76% |  | 64% |  | > 500 nM | 64% | > 500 nM | > 500 nM | > 500 nM | 73% | 61% |  |  | 34% |  |  |  |  |  | 
